Converted amounts (≈) assume the structure as drawn.
How the values were obtained:
Escherichia coli = assay: Antibacterial activity against Escherichia coli assessed as zone of inhibition; type: functional
Bacillus subtilis = assay: Antibacterial activity against Bacillus subtilis assessed as zone of inhibition; type: functional
Pseudomonas aeruginosa = assay: Antibacterial activity against Pseudomonas aeruginosa assessed as zone of inhibition; type: functional
HeLa = assay: Cytotoxicity against human HeLa cells by MTT assay; type: functional, cell-based
SiHa = assay: Cytotoxicity against human SiHa cells by MTT assay; type: functional, cell-based
HepG2 = assay: Cytotoxicity against human HepG2 cells by MTT assay; type: functional, cell-based
[1] = test system: Panel NCI-60 (60 carcinoma cell lines); assay: Cytotoxicity against human Panel NCI-60 (60 carcinoma cell lines); type: functional; design: concentration or dose not given beside the values
MCF7 = assay: Cytotoxicity against human MCF7 cells by MTT assay; type: functional, cell-based
HCT-116 = assay: Cytotoxicity against human HCT-116 cells by MTT assay; type: functional, cell-based
Staphylococcus aureus = assay: Antibacterial activity against Staphylococcus aureus assessed as zone of inhibition; type: functional

NC(=O)c1c(Nc2ccc(Br)cc2)nn2c(-c3ccccc3)ccnc12
inhibition zone (IZ) (Escherichia coli): 9 mm | inhibition zone (IZ) (Bacillus subtilis): 9 mm | inhibition zone (IZ) (Pseudomonas aeruginosa): 9 mm

COc1cc(-c2cc(C(=O)N3CCN(C(=O)c4ccccc4NCc4ccco4)CC3)nc3cc(-c4ccccc4)nn23)cc(OC)c1OC
IC50 (HeLa): 1540 nM | IC50 (SiHa): 1610 nM

NC(=O)c1c(Nc2ccc(Cl)cc2)nn2c(-c3ccccc3)ccnc12
IC50 (HepG2): 72200 nM

COc1ccc(Nc2nn3c(-c4ccccc4)cc(-c4ccccc4)nc3c2C(=O)Nc2ccc(C)cc2)c(OC)c1
Activity [1]: 0.5%

COc1ccc(NC(=O)c2c(Nc3ccc(OC)cc3OC)nn3c(-c4ccccc4)cc(-c4ccccc4)nc23)c(OC)c1
Activity [1]: 0.5%

O=C(c1cc(-c2ccccc2)n2nc(-c3ccccc3)cc2n1)N1CCN(C(=O)c2ccccc2NCc2ccco2)CC1
IC50 (SiHa): 1930 nM

COc1ccc(Nc2nn3c(-c4ccccc4)cc(-c4ccccc4)nc3c2C(=O)Nc2ccccc2)c(OC)c1
Activity [1]: 0.5%

O=C(c1cc(-c2ccc([N+](=O)[O-])cc2)n2nc(-c3ccccc3)cc2n1)N1CCN(C(=O)c2ccccc2NCc2cccc3c2OCO3)CC1
IC50 (HeLa): 1990 nM | IC50 (SiHa): 1990 nM

COc1ccc(Nc2nn3c(C)cc(C)nc3c2C(=O)Nc2ccc(C)cc2)c(OC)c1
Activity [1]: 0.5%

O=C(Nc1ccccc1)c1cnn2c(-c3ccc([N+](=O)[O-])cc3)ccnc12
inhibition zone (IZ) (Escherichia coli): 11 mm

N#Cc1c(-c2ccccc2)nc2c(/N=N/c3cccc(C(F)(F)F)c3)c(N)nn2c1O
IC50 (MCF7): 2.09 µg/mL | IC50 (HCT-116): 2.39 µg/mL (≈ 5.65 µM) | IC50 (HepG2): 2.41 µg/mL

COc1cc(-c2cc(C(=O)N3CCN(C(=O)c4ccccc4NCc4cccc5c4OCO5)CC3)nc3cc(-c4ccccc4)nn23)cc(OC)c1OC
IC50 (HeLa): 1760 nM

COc1ccc(NC(=O)c2c(Nc3ccc(OC)cc3OC)nn3c(C)cc(C)nc23)c(OC)c1
Activity [1]: 0.5%

COc1ccc(Nc2nn3c(-c4ccc(Br)cc4)ccnc3c2C(N)=O)cc1
IC50 (MCF7): 65300 nM | IC50 (HepG2): 70300 nM

NC(=O)c1c(Nc2ccccc2)nn2c3c(cnc12)CCC3
inhibition zone (IZ) (Bacillus subtilis): 9 mm | inhibition zone (IZ) (Pseudomonas aeruginosa): 9 mm

CC[C@H](CO)Nc1nc(NCc2ccccc2)c2ncn(C(C)C)c2n1 [SELICICLIB]
IC50 (HeLa): 2200 nM | IC50 (SiHa): 2690 nM

COc1ccc(Nc2nn3c4c(cnc3c2C(=O)Nc2ccc(Cl)cc2)C(=O)CC(C)(C)C4)cc1
IC50 (HepG2): 72200 nM

COc1cc(CNc2ccccc2C(=O)N2CCN(C(=O)c3cc(-c4cc(OC)c(OC)c(OC)c4)n4nc(-c5ccccc5)cc4n3)CC2)cc(OC)c1OC
IC50 (HeLa): 1510 nM | IC50 (SiHa): 1910 nM

NC(=O)c1c(Nc2ccc(Cl)cc2)nn2c(-c3ccc(Cl)cc3)ccnc12
IC50 (HepG2): 72200 nM

CCNc1nn2c(-c3ccc(Br)cc3)ccnc2c1C(N)=O
inhibition zone (IZ) (Staphylococcus aureus): 9 mm

COc1ccc(Nc2nn3c(O)cc(-c4ccccc4)nc3c2C(N)=O)c(OC)c1
Activity [1]: 0.5%

CC(=O)O[C@H]1C(=O)[C@@]2(C)[C@H]([C@H](OC(=O)c3ccccc3)[C@]3(O)C[C@H](OC(=O)[C@H](O)[C@@H](NC(=O)c4ccccc4)c4ccccc4)C(C)=C1C3(C)C)[C@]1(OC(C)=O)CO[C@@H]1C[C@@H]2O [PACLITAXEL]
IC50 (MCF7): 4.7 µg/mL | IC50 (HCT-116): 2.9 µg/mL (≈ 3.4 µM) | IC50 (HepG2): 4.3 µg/mL

COc1ccc(Nc2nn3c(O)cc(-c4ccccc4)nc3c2C(=O)Nc2ccc(C)cc2)c(OC)c1
Activity [1]: 0.5%

O=C(Nc1ccccc1)c1cnn2c(-c3ccc(Cl)cc3)ccnc12
inhibition zone (IZ) (Escherichia coli): 10 mm | inhibition zone (IZ) (Staphylococcus aureus): 17 mm

NC(=O)c1c(Nc2ccccc2)nn2c(-c3ccc(O)cc3)ccnc12
inhibition zone (IZ) (Escherichia coli): 9 mm | inhibition zone (IZ) (Bacillus subtilis): 9 mm | inhibition zone (IZ) (Pseudomonas aeruginosa): 9 mm | inhibition zone (IZ) (Staphylococcus aureus): 9 mm

NC(=O)c1c(Nc2ccccc2)nn2c(-c3ccc(Cl)cc3)ccnc12
IC50 (MCF7): 63200 nM | inhibition zone (IZ) (Bacillus subtilis): 9 mm | IC50 (HepG2): 86600 nM | inhibition zone (IZ) (Pseudomonas aeruginosa): 9 mm

NC(=O)c1c(Nc2ccccc2)nn2c(-c3ccc(Br)cc3)ccnc12
IC50 (MCF7): 64000 nM | inhibition zone (IZ) (Bacillus subtilis): 9 mm | IC50 (HepG2): 76200 nM

COc1ccc(-c2ccnc3c(C(N)=O)c(Nc4ccc(Cl)cc4)nn23)cc1
IC50 (HepG2): 72200 nM

O=C(Nc1ccccc1-c1ccnc2c(C(=O)NCc3ccc(F)cc3)cnn12)c1ccc(Cl)c(Cl)c1
IC50 (HeLa): 9600 nM

COc1ccc(Nc2nn3c(N)c(C#N)c(-c4cc(OC)ccc4OC)nc3c2C(=O)Nc2ccc(Cl)cc2)cc1
inhibition zone (IZ) (Escherichia coli): 16 mm | inhibition zone (IZ) (Bacillus subtilis): 21 mm

COc1ccc(Nc2nn3c(O)cc(C)nc3c2C(=O)Nc2ccc(C)cc2)c(OC)c1
Activity [1]: 0.5%

O=C(Nc1ccccc1)c1cnn2c(-c3ccccc3)ccnc12
inhibition zone (IZ) (Escherichia coli): 10 mm | inhibition zone (IZ) (Staphylococcus aureus): 10 mm

CNc1nn2c(-c3ccccc3)ccnc2c1C(N)=O
inhibition zone (IZ) (Bacillus subtilis): 9 mm | inhibition zone (IZ) (Pseudomonas aeruginosa): 9 mm

COc1ccc(-c2cc(C(=O)N3CCN(C(=O)c4ccccc4NCc4ccco4)CC3)nc3cc(-c4ccccc4)nn23)cc1OC
IC50 (HeLa): 1560 nM

Nc1nc2c(/N=N/c3ccc(C(F)(F)F)cc3)c(N)nn2c(N)c1/N=N/c1nccs1
IC50 (HepG2): 4.1 µg/mL

NC(=O)c1c(Nc2ccc(Cl)cc2)nn2c(-c3ccc(Br)cc3)ccnc12
IC50 (HepG2): 72200 nM

COc1ccc(Nc2nn3c(N)c(C#N)c(-c4cccc(C)c4)nc3c2C(=O)Nc2ccccc2)cc1
inhibition zone (IZ) (Escherichia coli): 16 mm | inhibition zone (IZ) (Bacillus subtilis): 20 mm

COc1ccc(-c2ccnc3c(C(=O)Nc4ccccc4)cnn23)cc1
inhibition zone (IZ) (Escherichia coli): 10 mm

COc1ccc(Nc2nn3c(O)cc(C)nc3c2C(=O)Nc2ccccc2)c(OC)c1
Activity [1]: 0.5%

NC(=O)c1c(Nc2ccccc2)nn2c(-c3ccc(F)cc3)ccnc12
IC50 (HepG2): 72200 nM

Nc1nn2c(-c3ccc(S(=O)(=O)c4ccccc4)cc3)ccnc2c1/N=N/c1ccccc1
inhibition zone (IZ) (Bacillus subtilis): 26.5 mm

COc1ccc(-c2cc(-c3nn4cc(-c5ccncc5)cnc4c3S(=O)(=O)c3ccc(OC)cc3)on2)cc1
IC50 (SiHa): 1770 nM

COc1ccc(-c2cc(-c3nn4cc(-c5ccncc5)cnc4c3S(=O)(=O)c3ccc([N+](=O)[O-])cc3)on2)cc1
IC50 (SiHa): 2100 nM

Cc1ccc(Nc2nn3c(-c4ccc(Br)cc4)ccnc3c2C(N)=O)cc1
IC50 (HepG2): 72200 nM

NC(=O)c1c(Nc2ccc(Br)cc2)nn2c3c(cnc12)CCCC3
inhibition zone (IZ) (Bacillus subtilis): 9 mm | inhibition zone (IZ) (Pseudomonas aeruginosa): 9 mm

COc1ccc(-c2cc(C(=O)N3CCN(C(=O)c4ccccc4NCc4cccs4)CC3)nc3cc(-c4ccccc4)nn23)cc1OC
IC50 (HeLa): 1990 nM | IC50 (SiHa): 1810 nM

COc1ccc(-c2cc(C(=O)N3CCN(C(=O)c4ccccc4NCc4cc(OC)c(OC)c(OC)c4)CC3)nc3cc(-c4ccccc4)nn23)cc1
IC50 (HeLa): 1890 nM

O=C(Nc1ccccc1-c1ccnc2c(C(=O)NCc3ccccc3Cl)cnn12)c1ccc(Cl)c(Cl)c1
IC50 (HeLa): 9100 nM

CC1(C)CC(=O)c2cnc3c(C(N)=O)c(Nc4ccccc4)nn3c2C1
IC50 (MCF7): 66500 nM | IC50 (HepG2): 77600 nM

COc1cc(-c2cc(C(=O)N3CCN(C(=O)c4ccccc4NCc4cccs4)CC3)nc3cc(-c4ccccc4)nn23)cc(OC)c1OC
IC50 (HeLa): 1460 nM | IC50 (SiHa): 1560 nM

COc1cccc2c1C(=O)c1c(O)c3c(c(O)c1C2=O)C[C@@](O)(C(=O)CO)C[C@@H]3O[C@H]1C[C@H](N)[C@H](O)[C@H](C)O1 [DOXORUBICIN]
IC50 (HCT-116): 1.6 µg/mL (≈ 2.94 µM) | IC50 (HepG2): 80900 nM

NC(=O)c1c(Nc2ccc(Br)cc2)nn2c(-c3ccc(Cl)cc3)ccnc12
inhibition zone (IZ) (Staphylococcus aureus): 9 mm

COc1ccc(NC(=O)c2c(Nc3ccc(OC)cc3OC)nn3c(O)cc(-c4ccccc4)nc23)c(OC)c1
Activity [1]: 0.5%

CCOC(=O)c1cnn(-c2cc(C)nc3c(C#N)cnn23)c1N
inhibition zone (IZ) (Escherichia coli): 15.4 mm | inhibition zone (IZ) (Bacillus subtilis): 17.1 mm

CCOC(=O)c1cnc2c(C(=O)Nc3ccccc3)cnn2c1C
inhibition zone (IZ) (Escherichia coli): 10 mm

COC(=O)c1cnc2c(C(=O)Nc3ccccc3)cnn2c1C
inhibition zone (IZ) (Staphylococcus aureus): 19 mm

O=C(c1cc(-c2ccccc2)n2nc(-c3ccccc3)cc2n1)N1CCN(C(=O)c2ccccc2NCc2cccc3c2OCO3)CC1
IC50 (HeLa): 1950 nM

O=C(Nc1ccccc1-c1ccnc2c(C(=O)NCc3ccc(F)cc3)cnn12)c1c(Cl)cc(Cl)cc1Cl
IC50 (HeLa): 8700 nM

NC(=O)c1c(Nc2ccc(Cl)cc2)nn2c(-c3ccc(F)cc3)ccnc12
IC50 (HepG2): 72200 nM

Cc1cc(-n2ncc3c(=O)n(-c4ccccc4)cnc32)n2ncc(C#N)c2n1
inhibition zone (IZ) (Escherichia coli): 13.1 mm | inhibition zone (IZ) (Bacillus subtilis): 14.3 mm

COc1ccc(Nc2nn3c(O)cc(C)nc3c2C(N)=O)c(OC)c1
Activity [1]: 0.5%

Cc1ccc(Nc2nn3c(-c4ccc(Cl)cc4)ccnc3c2C(N)=O)cc1
IC50 (HepG2): 72200 nM

NC(=O)c1c(Nc2ccc(Br)cc2)nn2c(-c3ccc(Br)cc3)ccnc12
inhibition zone (IZ) (Escherichia coli): 9 mm | inhibition zone (IZ) (Bacillus subtilis): 9 mm | inhibition zone (IZ) (Pseudomonas aeruginosa): 9 mm | inhibition zone (IZ) (Staphylococcus aureus): 9 mm

COc1ccc(Nc2nn3c(O)cc(-c4ccccc4)nc3c2C(=O)Nc2ccccc2)c(OC)c1
Activity [1]: 0.5%

NC(=O)c1c(Nc2ccc(Br)cc2)nn2c3c(cnc12)CCC3
inhibition zone (IZ) (Escherichia coli): 11 mm | inhibition zone (IZ) (Bacillus subtilis): 12 mm | inhibition zone (IZ) (Pseudomonas aeruginosa): 9 mm

COc1ccc(-c2cc(C(=O)N3CCN(C(=O)c4ccccc4NCc4cccc5c4OCO5)CC3)nc3cc(-c4ccccc4)nn23)cc1
IC50 (HeLa): 1950 nM

COc1cc(CNc2ccccc2C(=O)N2CCN(C(=O)c3cc(-c4ccc(C)cc4)n4nc(-c5ccccc5)cc4n3)CC2)cc(OC)c1OC
IC50 (HeLa): 1810 nM

COc1ccc(NC(=O)c2c(Nc3ccc(OC)cc3OC)nn3c(O)cc(C)nc23)c(OC)c1
Activity [1]: 0.5%

COc1ccc(Nc2nn3c(-c4cccs4)ccnc3c2C(N)=O)cc1
IC50 (HepG2): 72200 nM

COc1ccc(-c2cc(-c3nn4cc(-c5ccncc5)cnc4c3S(=O)(=O)c3cc(OC)cc(OC)c3)on2)cc1
IC50 (SiHa): 990 nM

COc1ccc(-c2cc(C(=O)N3CCN(C(=O)c4ccccc4NCc4ccco4)CC3)nc3cc(-c4ccccc4)nn23)cc1
IC50 (HeLa): 1730 nM

COc1ccc(Nc2nn3c(C)cc(C)nc3c2C(N)=O)c(OC)c1
Activity [1]: 0.5%

NC(=O)c1c(Nc2ccc(Br)cc2)nn2c3c(cnc12)CCCCCC3
inhibition zone (IZ) (Bacillus subtilis): 9 mm | inhibition zone (IZ) (Pseudomonas aeruginosa): 9 mm

COc1ccc(Nc2nn3c(C)cc(C)nc3c2C(=O)Nc2ccccc2)c(OC)c1
Activity [1]: 0.5%

Reference: ChEMBL document CHEMBL5241120, “Insights into the medicinal chemistry of heterocycles integrated with a pyrazolo[1,5-a]pyrimidine scaffold” (RSC Med Chem, 2022)
